Where two headings read alike, the source gives them in different places.
Experiments:
[1] = test system: rat hippocampal slice cultures; assay type: cell-based
[2] = test system: rat hippocampal slice cultures; assay type: cell-based; settings: for reduction of overall damage: LDH release 24 h after Glut
[3] = test system: Sodium channels in mouse neuroblastoma N1E-115 cells; assay: Sodium current fast and slow inactivation in neuroblastoma cells (holding potential/prepulse protocols); assay type: cell-based; settings: for current when the holding potential was −60 mV: 10 ms test pulse to 0 mV; for fraction available after 500 ms hyperpolarizing pulse to −100 mV, compared to control values: holding potential −60 mV; for % of channels in the slow inactivated state: held at −80 mV, 10 s to −10 mV, 1.5 s recovery, VEH 27%
sodium channels = assay type: cell-based; settings: 100 μM
[4] = test system: voltage-gated Na+ channels; settings: cited from earlier work
[5] = test system: TTX-resistant sodium currents in rat dorsal root ganglia; assay: Slow inactivation of TTX-resistant sodium current in dorsal root ganglia; assay type: cell-based; settings: 100 μM
[6] = biological target: T1, rat type II sodium channel alpha subunit (Nav1.2) (Rattus norvegicus, UniProt P04775); assay: Sodium currents in Xenopus oocytes expressing sodium channel alpha subunits; assay type: cell-based
T1 construct: expressed in transfected cells; host or cells: Xenopus oocytes
T1 sequence (P04775 whole entry): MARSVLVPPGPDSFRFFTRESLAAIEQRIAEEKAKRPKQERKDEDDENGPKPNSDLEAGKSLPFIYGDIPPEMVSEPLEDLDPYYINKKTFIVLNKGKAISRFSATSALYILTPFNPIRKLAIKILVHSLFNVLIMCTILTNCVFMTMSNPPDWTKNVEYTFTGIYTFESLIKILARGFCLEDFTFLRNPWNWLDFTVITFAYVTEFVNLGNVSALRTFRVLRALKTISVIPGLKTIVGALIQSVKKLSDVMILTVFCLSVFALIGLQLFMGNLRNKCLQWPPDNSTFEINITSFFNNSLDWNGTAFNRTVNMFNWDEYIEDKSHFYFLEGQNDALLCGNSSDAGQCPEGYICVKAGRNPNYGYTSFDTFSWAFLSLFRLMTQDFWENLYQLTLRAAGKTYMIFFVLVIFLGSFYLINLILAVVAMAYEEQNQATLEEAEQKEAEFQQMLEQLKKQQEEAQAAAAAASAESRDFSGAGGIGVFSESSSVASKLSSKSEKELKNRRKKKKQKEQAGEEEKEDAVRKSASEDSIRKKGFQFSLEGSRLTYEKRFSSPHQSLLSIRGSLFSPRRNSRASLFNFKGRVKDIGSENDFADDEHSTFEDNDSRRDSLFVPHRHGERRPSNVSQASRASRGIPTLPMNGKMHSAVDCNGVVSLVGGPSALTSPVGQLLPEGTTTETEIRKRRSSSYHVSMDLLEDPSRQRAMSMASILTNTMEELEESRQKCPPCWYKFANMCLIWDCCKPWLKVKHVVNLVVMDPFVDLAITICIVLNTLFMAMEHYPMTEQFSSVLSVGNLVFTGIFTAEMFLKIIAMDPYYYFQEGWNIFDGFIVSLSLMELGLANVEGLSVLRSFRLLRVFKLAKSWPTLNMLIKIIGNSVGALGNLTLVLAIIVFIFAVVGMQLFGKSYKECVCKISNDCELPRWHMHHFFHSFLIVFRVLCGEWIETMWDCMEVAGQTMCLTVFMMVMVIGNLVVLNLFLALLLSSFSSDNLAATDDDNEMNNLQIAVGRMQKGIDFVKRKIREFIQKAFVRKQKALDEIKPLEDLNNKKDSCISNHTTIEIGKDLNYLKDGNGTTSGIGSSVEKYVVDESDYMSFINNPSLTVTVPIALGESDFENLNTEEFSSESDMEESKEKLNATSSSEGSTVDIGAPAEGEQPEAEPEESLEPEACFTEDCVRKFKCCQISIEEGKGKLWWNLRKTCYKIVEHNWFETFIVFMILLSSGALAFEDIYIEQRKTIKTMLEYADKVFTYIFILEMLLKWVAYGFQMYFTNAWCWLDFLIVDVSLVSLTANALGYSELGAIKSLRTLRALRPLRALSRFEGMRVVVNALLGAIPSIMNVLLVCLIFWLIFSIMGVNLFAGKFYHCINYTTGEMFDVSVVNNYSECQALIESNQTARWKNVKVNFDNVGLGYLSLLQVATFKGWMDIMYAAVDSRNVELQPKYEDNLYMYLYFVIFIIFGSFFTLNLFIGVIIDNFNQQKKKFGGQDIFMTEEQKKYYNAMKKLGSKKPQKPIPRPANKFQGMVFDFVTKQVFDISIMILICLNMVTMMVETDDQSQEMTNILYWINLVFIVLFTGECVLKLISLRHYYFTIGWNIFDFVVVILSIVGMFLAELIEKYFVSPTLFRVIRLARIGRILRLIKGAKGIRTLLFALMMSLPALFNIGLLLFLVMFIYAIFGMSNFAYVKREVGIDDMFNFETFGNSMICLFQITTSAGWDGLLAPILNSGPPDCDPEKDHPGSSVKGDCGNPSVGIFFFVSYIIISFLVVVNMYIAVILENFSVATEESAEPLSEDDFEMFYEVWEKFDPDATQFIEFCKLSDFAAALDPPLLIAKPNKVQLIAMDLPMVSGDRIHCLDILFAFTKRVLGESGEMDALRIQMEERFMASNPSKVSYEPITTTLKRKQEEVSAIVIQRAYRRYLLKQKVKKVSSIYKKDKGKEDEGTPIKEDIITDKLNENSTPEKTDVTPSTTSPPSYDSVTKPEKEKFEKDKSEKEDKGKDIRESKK

129SVEV mice = assay: Stress-induced hyperthermia (SIH) test, animal model for stress-induced anxiety; assay type: in vivo, mouse
Protocol: The room temperature was maintained between 20 and 23° C. with a relative humidity maintained between 30% and 70%.
On the day prior to testing, the mice were brought to the experimental room one hour before scheduled lights out and singly housed overnight with food and water ad libitum. […] The probe remained inside the animal for approximately 5 seconds or until body temperature reached stability. This temperature was recorded as the baseline rectal temperature (T1). […] Before each insertion, the rectal probe was cleaned with an alcohol pad and lubricated with sterile K-Y jelly.

[7] = test system: sodium channels in rat cortical neurons, NIE-115 cells and Xenopus oocytes; assay: Effects upon firing, synaptic transmission and sodium channels in rat cortical neurons, NIE-115 cells and Xenopus oocytes; assay type: cell-based
[8] = 10 μM, 15 mM glutamate for 24 h

## C[C@]12N[C@H](Cc3ccccc31)c1ccccc12 [MK-801]
[1]; [8]
  neuronal damage (PI uptake, CA1-CA3) 24 h after Glut: significant protection
[1]; 10 μM, PI uptake 24 h after Glut
  reduction of neuronal damage: ~80%
[2]; [8]
  overall damage (LDH release) 24 h after Glut: significant protection
[2]; 10 μM
  reduction of overall damage: ~50%

## NC1=N[C@H](O)[C@H]2[C@H]3O[C@]4(O)O[C@@H]([C@@H](O)[C@@]2(N1)[C@@H]4O)[C@]3(O)CO [Tetrodotoxin]
[1]
  neuronal damage (PI uptake, CA1-CA3) 24 h after Glut: neuroprotective effect
  reduction of neuronal damage: ~50%
[2]
  overall damage (LDH release) 24 h after Glut: protective effect
  reduction of general damage: 20-40%

## NC(=O)N1c2ccccc2C=Cc2ccccc21 [carbamazepine, reference compound]
[3]; 100 μM
  current when the holding potential was −60 mV: reduction in current
  fraction available after 500 ms hyperpolarizing pulse to −100 mV, compared to control values: 0.94±0.19

## COC[C@@H](NC(C)=O)C(=O)NCc1ccccc1 [lacosamide, (R)-2-acetamido-N-benzyl-3-methoxy-propionamide]
Sodium channels
  fraction of sodium channels slowly inactivated by a 10 s depolarizing pulse: significantly increased
Sodium channels; after 10 s depolarizing pulse
  half-life for channel recovery: not significantly changed
[4]
  fast inactivation gating of voltage-gated Na+ channels: does not exert its effects on neuronal excitability by affecting fast inactivation gating
[3]; 32 μM and 100 μM
  V50 for slow inactivation: shift of the V50 for slow inactivation to more negative potentials
[3]; 32 μM
  % of channels in the slow inactivated state: 37%
[3]; 100 μM
  conditioning potential of first significant change in channel availability: −80 mV
  reduction of sodium channel availability that resulted from entry into the slow inactivated state: more than doubled
  current when the holding potential was −60 mV: reduction in current
  % of channels in the slow inactivated state: 50%
[3]; 100 μM, 500 ms pulse to −100 mV
  inhibition after hyperpolarizing prepulse (removal of fast inactivation): not altered
[3]; 320 μM
  % of channels in the slow inactivated state: 62%
[3]; concentration dependent
  slow inactivation voltage curves: shifted the slow inactivation voltage curves to more hyperpolarized membrane potentials
[3]; conditioning potential −10 mV, CONTROL 0.70±0.02
  maximal fraction of current made unavailable by depolarisation: 0.41±0.04
[3]; in the presence of the drug, physiological 12.0 s
  time constant for entry into slow inactivation: 4.8 s
[5]
  slow inactivation of TTX-resistant sodium currents: markedly increased
[6]; 100 μM, Xenopus oocytes, Nav1.2
  slow inactivation voltage curve: pronounced shift
[6]; oocyte expression system
  inhibition of sodium currents: rapid and profoundly voltage dependent inhibition
129SVEV mice; 3 mg/kg i.p. 60 min prior to testing
  effect on SIH compared to saline: significantly attenuated
129SVEV mice; 10 mg/kg i.p. 60 min prior to testing
  effect on SIH compared to saline: significantly attenuated
129SVEV mice; 30 mg/kg i.p. 60 min prior to testing
  effect on SIH compared to saline: No significant effects
[1]
  reduction of Glut-induced necrosis (neuronal damage): 40-50%
[2]; 1, 10 and 100 μM
  reduction of overall damage: 30-40%
[7]
  frequency of miniature excitatory post-synaptic potentials: not reduced
  prolonged sustained repetitive firing on action potentials: inhibits
  rate of sodium channel fast inactivation: does not change
  resting conductances: no effect
  slow prolonged bursting in cortical neurons: inhibits
  steady state fast inactivation voltage curves: does not shift
  sustained repetitive firing: did not block
  synaptic transmission under normal physiologic conditions: did not modulate
[7]; initial studies
  action potential firing evoked by brief depolarising steps or ramps: very limited effect
[7]; stereoselective and concentration dependent
  rate of synaptic traffic in cultured neurons: attenuates

## Nc1nnc(-c2cccc(Cl)c2Cl)c(N)n1 [lamotrigine, reference compound]
[3]; 100 μM
  current when the holding potential was −60 mV: reduction in current
  fraction available after 500 ms hyperpolarizing pulse to −100 mV, compared to control values: 0.88±0.06

## O=C1NC(=O)C(c2ccccc2)(c2ccccc2)N1 [phenytoin, reference compound]
[3]; 100 μM
  current when the holding potential was −60 mV: reduction in current
  fraction available after 500 ms hyperpolarizing pulse to −100 mV, compared to control values: 0.99±0.05

## CC(C)C[C@H](CN)CC(=O)O [pregabalin, reference compound]
129SVEV mice; mouse, in vivo, ip
  effect on SIH compared to saline: No significant effects

From US9308183B2, “Therapy for hyperexcitability disorders” (UCB PHARMA GMBH, priority 2006, dated 2016)
